From patent publication US11597724B2, “Herbicidally active 3-phenylisoxazoline-5-carboxamides of tetrahydro and dihydrofuran carboxylic acids and esters” (Bayer Aktiengesellschaft, priority 2017, dated 2023)

Columns and labels:
Assay type in all cases: in vivo
Abutilon theophrasti = assay: Post-emergence herbicidal activity against ABUTH; conditions: dosage 320 g/ha, rated about 3 weeks after treatment; for pest or weed control at 320 g/ha: Abutilon theophrasti, 504 h
Method in brief: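 Greenhouse-grown plants treated at one-leaf stage, 2 to 3 weeks after sowing, with WP or EC formulations sprayed as aqueous suspension/emulsion plus 0.5% additive at 600 l/ha. Activity rated visually about 3 weeks later versus untreated controls (100% = plants dead, 0% = like control).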

Setaria viridis = assay: Post-emergence herbicidal activity against SETVI; conditions: dosage 320 g/ha, rated about 3 weeks after treatment; for pest or weed control at 320 g/ha: Setaria viridis, 504 h
Method in brief: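 Greenhouse weeds in sandy loam were sprayed at the one-leaf stage, 2–3 weeks after sowing, with WP or EC formulations plus 0.5% additive at 600 l/ha water. About 3 weeks later, damage was rated visually against untreated controls, where 100% means plants dead and 0% means like control.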

Lolium rigidum = assay: Post-emergence herbicidal activity against LOLRI; conditions: dosage 320 g/ha, rated about 3 weeks after treatment; for pest or weed control at 320 g/ha: Lolium rigidum, 504 h
Method in brief: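 Greenhouse-grown plants sprayed post-emergence at the one-leaf stage, 2 to 3 weeks after sowing, with WP or EC formulations plus 0.5% additive at 600 l/ha water. Activity rated visually after about 3 weeks versus untreated controls (100% = plants dead, 0% = like control).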

Viola tricolor = assay: Post-emergence herbicidal activity against VIOTR; conditions: dosage 320 g/ha, rated about 3 weeks after treatment; for pest or weed control at 320 g/ha: Viola tricolor, 504 h
Method in brief: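 Greenhouse plants in sandy loam treated at one-leaf stage, 2 to 3 weeks after sowing, by spraying WP or EC formulations with 0.5% additive at 600 l/ha water. Activity rated visually after about 3 weeks versus untreated controls, 100% = plants dead, 0% = like control.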

Amaranthus retroflexus = assay: Pre-emergence herbicidal activity against AMARE; conditions: dosage 80 g/ha; for pest or weed control at 80 g/ha: Amaranthus retroflexus, 504 h
Description: (§1) 1. Pre-Emergence Herbicidal Action and Crop Plant Compatibility Seeds of monocotyledonous and dicotyledonous weed plants and crop plants are placed in plastic or wood fiber pots and covered with soil. The compounds of the invention, formulated in the form of wettable powders (WP) or as emulsion concentrates (EC), are then applied onto the surface of the covering soil as aqueous suspension or emulsion with addition of 0.5% additive at a water application rate of 600 l/ha (converted). After the treatment, the pots are placed in a greenhouse and kept under good growth conditions for the trial plants. After about 3 weeks, the effect of the preparations is scored visually in comparison with untreated controls as percentages. For example, 100% activity=the plants have died, 0% activity=like control plants. AMARE: Amaranthus retroflexus AVEFA: Avena fatua

Polygonum convolvulus = assay: Pre-emergence herbicidal activity against POLCO; conditions: dosage 80 g/ha; for pest or weed control at 80 g/ha: Fallopia convolvulus, 504 h
Description: as §1, with “POLCO: Polygonum convolvulus SETVI: Setaria viridis” for “AMARE: Amaranthus retroflexus AVEFA: Avena fatua”

Avena fatua = assay: Post-emergence herbicidal activity against AVEFA; conditions: dosage 320 g/ha, rated about 3 weeks after treatment; for pest or weed control at 320 g/ha: Avena fatua, 504 h
Method in brief: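 Greenhouse pots of sandy loam; plants sprayed at one-leaf stage, 2 to 3 weeks after sowing, with WP or EC formulations in water plus 0.5% additive at 600 l/ha. Activity rated visually after about 3 weeks against untreated controls (100% = plants dead, 0% = like control).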

SMILES	Post-emergence herbicidal activity against ABUTH in % (Abutilon theophrasti) [%]	Post-emergence herbicidal activity against SETVI in % (Setaria viridis) [%]	Post-emergence herbicidal activity against LOLRI in % (Lolium rigidum) [%]	Post-emergence herbicidal activity against VIOTR in % (Viola tricolor) [%]	pest or weed control at 80 g/ha (Amaranthus retroflexus) [%]	pest or weed control at 80 g/ha (Polygonum convolvulus) [%]	Post-emergence herbicidal activity against AVEFA in % (Avena fatua) [%]	Pre-emergence herbicidal activity against AMARE in % (Amaranthus retroflexus) [%]	Pre-emergence herbicidal activity against POLCO in % (Polygonum convolvulus) [%]	pest or weed control at 320 g/ha (Abutilon theophrasti) [%]	pest or weed control at 320 g/ha (Setaria viridis) [%]	pest or weed control at 320 g/ha (Lolium rigidum) [%]	pest or weed control at 320 g/ha (Viola tricolor) [%]	pest or weed control at 320 g/ha (Avena fatua) [%]
C=C[C@]1(C(=O)N[C@H]2CO[C@@H](C(=O)OC)C2)CC(c2cc(F)cc(F)c2)=NO1 (single isomer, unassigned) [I-12]	90	90	100	100	100	100	100	–	–	–	–	–	–	–
CC(C)OC(=O)C1CC(NC(=O)C2(C)CC(c3cc(F)cc(F)c3)=NO2)CO1 (stereo not drawn) [I-44]	80	90	100	90	–	–	100	90	100	–	–	–	–	–
C=C[C@]1(C(=O)N[C@H]2CO[C@@H](C(=O)OC)C2)CC(c2cc(F)cc(F)c2)=NO1 (single isomer, unassigned) [I-11]	–	–	–	–	–	–	–	100	100	90	90	100	90	100
CCOC(=O)C1CC(NC(=O)C2(C)CC(c3cc(F)cc(F)c3)=NO2)CO1 (mixture of isomers) [I-43]	80	80	100	90	–	–	100	90	100	–	–	–	–	–
C=C[C@]1(C(=O)N[C@H]2CO[C@@H](C(=O)OCc3ccccc3)C2)CC(c2cc(F)cc(F)c2)=NO1 (mixture of isomers) [I-37, benzyl cis-4-[[(5S)-3-(3,5-difluorophenyl)-5-vinyl-4H-isoxazole-5-carbonyl]amino]tetrahydrofuran-2-carboxylate]	–	–	–	–	100	100	–	–	–	80	80	90	80	100
CC1(C(=O)NC2COC(C(=O)OCc3ccccc3)C2)CC(c2cc(F)cc(F)c2)=NO1 (mixture of isomers) [I-45]	80	90	100	90	–	–	100	100	100	–	–	–	–	–
COC(=O)C1=C[C@@H](NC(=O)C2(C)CC(c3cccc(F)c3)=NO2)CO1 (stereo partly drawn) [I-46, methyl (3R)-3-[[3-(3-fluorophenyl)-5-methyl-4H-isoxazole-5-carbonyl]amino]-2,3-dihydrofuran-5-carboxylate]	–	–	–	–	90	90	–	–	–	80	80	100	90	100
COC(=O)C1CC(NC(=O)C2(C)CC(c3cc(F)cc(F)c3)=NO2)CO1 (mixture of isomers) [I-48]	80	80	90	80	–	–	80	100	100	–	–	–	–	–
CC(C)(C)OC(=O)C1CC(NC(=O)C2(C)CC(c3cc(F)cc(F)c3)=NO2)CO1 (mixture of isomers) [I-42]	80	90	100	90	–	–	100	100	100	–	–	–	–	–
C=C[C@]1(C(=O)N[C@H]2CO[C@@H](C(=O)OCC)C2)CC(c2cc(F)cc(F)c2)=NO1 (mixture of isomers) [I-35, ethyl cis-4-[[(5S)-3-(3,5-difluorophenyl)-5-vinyl-4H-isoxazole-5-carbonyl]amino]tetrahydrofuran-2-carboxylate]	–	–	–	–	100	100	–	–	–	80	90	100	80	100
C=C[C@]1(C(=O)N[C@H]2CO[C@@H](C(=O)OC)C2)CC(c2cc(F)cc(F)c2)=NO1 (mixture of isomers) [I-10, methyl cis-4-[[(5S)-3-(3,5-difluorophenyl)-5-vinyl-4H-isoxazole-5-carbonyl]amino]tetrahydrofuran-2-carboxylate]	–	–	–	–	90	100	–	–	–	90	90	100	80	100
CC1(C(=O)NC2COC(C(=O)O)C2)CC(c2cc(F)cc(F)c2)=NO1 (mixture of isomers) [I-41]	80	90	100	80	–	–	100	90	90	–	–	–	–	–
